The text below walks through data of patent US9725442B2, “Heterocyclic derivative having PGD2 receptor antagonist activity” (Shionogi & Co., Ltd., priority 2011, dated 2017).

One test has as its target Human DP1 receptor (Homo sapiens (Human), UniProt Q13258). Briefly: Human DP1 inhibitory activity in DP1-expressing cell (PGD2-induced cAMP). It is filed as cell-based. The procedure:
Compounds were categorized as AA (cAMP is less than 100 nM) and A (cAMP is more than 100 nM and less than 5000 nM) as shown in Table 99 and 100.

A further test has as its target CRTH2 (Homo sapiens (Human), UniProt Q9Y5Y4). Briefly: CRTH2 receptor binding inhibitory activity ([3H]-PGD2 displacement, membranes of CRTH2-expressing K562 cell). Conditions: [3H]-PGD2 displacement, membrane of CRTH2-expressing K562 cell, read-out: Ki. In short, it runs like this: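 CRTH2-expressing K562 membranes (20 μg/well) in 50 mM Tris/HCl pH 7.4 with 10 mM MgCl2 were incubated with [3H]-PGD2 for 60 min at room temperature, then filtered.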

The mark [1] stands for this setting: category of cAMP IC50, human DP1 receptor expressing Jurkut cell.
Where [2] appears, read: CRTH2 receptor binding, categorized AAAA/AAA.
The mark [3] stands for this setting: IC50 of PGD2 (60 nM)-induced cAMP increase, human DP1 receptor expressing Jurkut cell.

Structures are written as SMILES. Like-named read-outs stand apart in the source and are kept apart here.

Sequence of CRTH2 (Q9Y5Y4 whole entry): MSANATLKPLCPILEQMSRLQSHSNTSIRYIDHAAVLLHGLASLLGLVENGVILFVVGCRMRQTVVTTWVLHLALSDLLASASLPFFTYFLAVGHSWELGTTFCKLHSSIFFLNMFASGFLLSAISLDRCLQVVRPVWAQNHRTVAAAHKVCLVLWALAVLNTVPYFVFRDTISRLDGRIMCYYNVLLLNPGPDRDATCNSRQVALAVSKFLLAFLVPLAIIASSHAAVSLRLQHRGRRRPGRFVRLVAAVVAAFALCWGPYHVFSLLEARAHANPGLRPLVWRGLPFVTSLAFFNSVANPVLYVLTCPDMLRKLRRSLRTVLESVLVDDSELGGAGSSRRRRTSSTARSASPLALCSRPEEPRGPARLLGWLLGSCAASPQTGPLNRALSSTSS
Sequence of Human DP1 receptor (Q13258 whole entry): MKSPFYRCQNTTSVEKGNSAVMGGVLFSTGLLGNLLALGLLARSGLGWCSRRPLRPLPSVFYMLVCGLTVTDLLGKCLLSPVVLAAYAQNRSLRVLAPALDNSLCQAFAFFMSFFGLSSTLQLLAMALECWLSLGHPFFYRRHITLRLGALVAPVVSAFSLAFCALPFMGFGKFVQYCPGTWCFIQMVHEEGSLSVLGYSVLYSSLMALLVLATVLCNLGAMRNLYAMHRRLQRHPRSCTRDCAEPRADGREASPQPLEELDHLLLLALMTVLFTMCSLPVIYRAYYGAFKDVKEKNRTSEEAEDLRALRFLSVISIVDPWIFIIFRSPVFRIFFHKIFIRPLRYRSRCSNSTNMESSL

As to `CCOc1ccc(S(=O)(=O)N2C[C@@H](C)[C@@H](n3cc(CC(=O)O)c4ccc(-c5ncco5)cc43)C2)cc1` [Compound I-282], the half-maximal inhibitory concentration (IC50) (usually the concentration that gives 50% inhibition) against Human DP1 receptor (setting [1]) was 100 to 5000 nM. Further, the inhibitory constant (Ki) – broadly, a dissociation constant, usually derived from enzyme kinetics or from competition with a known ligand – at CRTH2 (setting [2]) is less than 100 nM; on CRTH2, 10 nM.

`CCOc1ccc(S(=O)(=O)N2C[C@@H](C)[C@@H](n3nc(C(C)(O)C(=O)O)c4ccccc43)C2)cc1` (stereo partly shown) [Compound I-283]: the IC50 against Human DP1 receptor (setting [1]) is less than 100 nM. For the same molecule, on CRTH2 (setting [2]), the inhibition constant Ki is 100 to 5000 nM.

Consider `CCOc1ccc(S(=O)(=O)N2C[C@@H](C)[C@@H](n3nc(C(C)(OC)C(=O)O)c4ccccc43)C2)cc1` (stereo partly shown) [Compound I-285], for which the IC50 on Human DP1 receptor (setting [1]) lay within 100 to 5000 nM. Besides, on CRTH2 (setting [2]), the inhibitory constant (Ki) is 100 to 5000 nM.

As for `Cc1ccc(S(=O)(=O)N2C[C@@H](C)[C@@H](n3c(C)c(CC(=O)O)c4ccccc43)C2)cc1` [Compound I-288], the half-inhibitory concentration (IC50) on Human DP1 receptor (setting [3]) was 100 nM; at Human DP1 receptor (setting [1]) it was 100 to 5000 nM. Besides, the inhibitory constant (Ki) at CRTH2 (setting [2]) is less than 100 nM; on CRTH2 it was 40 nM.

Molecule `CC(C)Oc1ccc(S(=O)(=O)N2C[C@H](n3nc(CC(=O)O)c4ccc(F)cc43)C[C@@H]2COCCCOc2ccccc2)cc1` [Compound I-289] yielded an IC50 at Human DP1 receptor (setting [1]) of 100 to 5000 nM. Also, the inhibitory constant (Ki) on CRTH2 (setting [2]) lay in the range of 100 to 5000 nM.

At Human DP1 receptor (setting [1]), `CCOc1ccc(S(=O)(=O)N2C[C@@H](C)[C@@H](n3nc(C(F)(F)C(=O)O)c4ccccc43)C2)cc1` [Compound I-290] returned an IC50 of less than 100 nM. Further, the inhibition constant Ki at CRTH2 (setting [2]) is 100 to 5000 nM.

As for `COCCOCCOC[C@H]1C[C@@H](n2nc(CC(=O)O)c3ccc(F)cc32)CN1S(=O)(=O)c1ccc(OC(C)C)cc1` [Compound I-291], the 50% inhibitory concentration (IC50) against Human DP1 receptor (setting [1]) was 100 to 5000 nM. At CRTH2 (setting [2]), the Ki lay within 100 to 5000 nM.

`CC(C)Oc1ccc(S(=O)(=O)N2C[C@H](n3nc(CC(=O)O)c4ccc(F)cc43)C[C@@H]2COc2ccccc2O)cc1` [Compound I-292]: the half-inhibitory concentration (IC50) against Human DP1 receptor (setting [1]) was less than 100 nM. Also, the Ki on CRTH2 (setting [2]) lay in the range of 100 to 5000 nM.

On to `CCOc1ccc(S(=O)(=O)N2C[C@H](n3nc(CC(=O)O)c4ccccc43)[C@H](C)[C@H]2C#N)cn1` [Compound I-293], for which the IC50 on Human DP1 receptor (setting [1]) was in the range of 100 to 5000 nM. Besides, the Ki on CRTH2 (setting [2]) lay in the range of 100 to 5000 nM.

`CCOc1ccc(S(=O)(=O)N2C[C@@H](n3nc(CC(=O)O)c4ccccc43)[C@H](C)[C@H]2C#N)cc1` [Compound I-294]: at Human DP1 receptor (setting [1]), the IC50 was 100 to 5000 nM. Also, the Ki on CRTH2 (setting [2]) was in the range of 100 to 5000 nM.

`CC(C)Oc1ccc(S(=O)(=O)N2C[C@H](n3nc(CC(=O)O)c4ccc(F)cc43)C[C@@H]2COc2cccc(I)c2)cc1` [Compound I-295] displayed an IC50 against Human DP1 receptor (setting [1]) of less than 100 nM. Also, the Ki on CRTH2 (setting [2]) fell in the range of 100 to 5000 nM.

For `CCOc1ccc(S(=O)(=O)N2C[C@@H](C)[C@@H](n3nc(Cc4noc(=O)[nH]4)c4ccccc43)C2)cc1` [Compound I-296], the IC50 against Human DP1 receptor (setting [1]) was in the range of 100 to 5000 nM. The inhibition constant Ki at CRTH2 (setting [2]) was in the range of 100 to 5000 nM.

Take `CCOc1ccc(S(=O)(=O)N2C[C@@H](C)[C@@H](n3nc(CC4=NNC(=O)C4)c4ccccc43)C2)cc1` [Compound I-297]: the IC50 at Human DP1 receptor (setting [1]) fell in the range of 100 to 5000 nM. Also, at CRTH2 (setting [2]), the Ki was 100 to 5000 nM.

The molecule `CCOc1ccc(S(=O)(=O)N2C[C@H](n3nc(CC(=O)O)c4ccccc43)[C@@H](C)[C@@H]2C(N)=O)cc1` [Compound I-298] displayed a 50% inhibitory concentration (IC50) against Human DP1 receptor (setting [1]) of 100 to 5000 nM. Also, the Ki on CRTH2 (setting [2]) was 100 to 5000 nM.

As for `CC(C)Oc1ccc(S(=O)(=O)N2C[C@H](n3nc(CC(=O)O)c4ccc(F)cc43)C[C@@H]2Cn2ncnn2)cc1` [Compound I-299], the half-inhibitory concentration (IC50) against Human DP1 receptor (setting [1]) is 100 to 5000 nM. Besides, the Ki on CRTH2 (setting [2]) lay in the range of 100 to 5000 nM.

`CC(C)Oc1ccc(S(=O)(=O)N2C[C@H](n3nc(CC(=O)O)c4ccc(F)cc43)C[C@H]2COc2nc3ccccc3s2)cc1` [Compound I-300] registered a 50% inhibitory concentration (IC50) on Human DP1 receptor (setting [1]) of 100 to 5000 nM. The Ki on CRTH2 (setting [2]) is less than 100 nM.

The molecule `CC(C)Oc1ccc(S(=O)(=O)N2C[C@@H](n3nc(CC(=O)O)c4ccc(F)cc43)C[C@@H]2c2ccccc2F)cc1` [Compound I-301] registered a half-inhibitory concentration (IC50) on Human DP1 receptor (setting [1]) of 100 to 5000 nM. The Ki on CRTH2 (setting [2]) is 100 to 5000 nM.

`CC(C)Oc1ccc(S(=O)(=O)N2C[C@H](n3nc(CC(=O)O)c4ccc(F)cc43)C[C@@H]2c2ccccc2F)cc1` [Compound I-302] had an IC50 at Human DP1 receptor (setting [1]) of 100 to 5000 nM. In addition, on CRTH2 (setting [2]), the Ki lay within 100 to 5000 nM.

Take `CC(C)Oc1ccc(S(=O)(=O)N2C[C@H](n3nc(CC(=O)O)c4ccc(F)cc43)C[C@@H]2COc2cccc(F)c2)cc1` [Compound I-303]: the IC50 against Human DP1 receptor (setting [1]) is less than 100 nM. The inhibition constant Ki at CRTH2 (setting [2]) lay within 100 to 5000 nM.

In turn, `CCOc1ccc(S(=O)(=O)N2C[C@H](n3nc(CC(=O)O)c4ccccc43)[C@@H](C)[C@@H]2C#N)cc1` [Compound I-304] showed a 50% inhibitory concentration (IC50) on Human DP1 receptor (setting [1]) of less than 100 nM. The Ki at CRTH2 (setting [2]) was less than 100 nM.

On Human DP1 receptor (setting [1]), `CCS(=O)(=O)CCOc1ccc(S(=O)(=O)N2C[C@@H](C)[C@@H](n3nc(CC(=O)O)c4ccccc43)C2)cc1` [Compound I-305] returned an IC50 of 100 to 5000 nM. In addition, the inhibition constant (Ki) on CRTH2 (setting [2]) lay in the range of 100 to 5000 nM.

Molecule `CCSCCOc1ccc(S(=O)(=O)N2C[C@@H](C)[C@@H](n3nc(CC(=O)O)c4ccccc43)C2)cc1` [Compound I-308] displayed an IC50 at Human DP1 receptor (setting [1]) of less than 100 nM. Moreover, the inhibition constant (Ki) on CRTH2 (setting [2]) was less than 100 nM.

For `CCOc1ccc(S(=O)(=O)N2C[C@@H](n3nc(CC(=O)O)c4ccccc43)[C@](C)(F)C2)cc1` [Compound I-310], on Human DP1 receptor (setting [1]), the 50% inhibitory concentration (IC50) was 100 to 5000 nM. Moreover, the Ki on CRTH2 (setting [2]) was 100 to 5000 nM.

As for `CCOc1ccc(S(=O)(=O)N2C[C@@H](C)[C@@H](n3nc(CC(=O)NO)c4ccccc43)C2)cc1` [Compound I-311], on Human DP1 receptor (setting [1]), the IC50 was in the range of 100 to 5000 nM. In addition, the Ki at CRTH2 (setting [2]) is 100 to 5000 nM.

With `CCOc1ccc(S(=O)(=O)N2C[C@@H](C)[C@@H](n3nc(CC(=O)O)c4ccccc43)C2)c(C(C)O)c1` (stereo partly shown) [Compound I-312], the half-inhibitory concentration (IC50) against Human DP1 receptor (setting [1]) is less than 100 nM. The Ki at CRTH2 (setting [2]) was less than 100 nM.

`CCOc1ccc(S(=O)(=O)N2C[C@H](F)[C@@H](n3nc(CC(=O)O)c4ccccc43)C2)cc1` [Compound I-313] displayed an IC50 against Human DP1 receptor (setting [1]) of 100 to 5000 nM. Also, the inhibition constant (Ki) on CRTH2 (setting [2]) is less than 100 nM.

Turning to `CCOc1ccc(S(=O)(=O)N2C[C@@H](C)[C@@H](n3nc(CC(=O)O)c4ccccc43)C2)c(CCO)c1` [Compound I-314], at Human DP1 receptor (setting [1]), the IC50 lay in the range of 100 to 5000 nM. For the same molecule, on CRTH2 (setting [2]), the inhibition constant Ki was less than 100 nM.

The molecule `CCOc1ccc(S(=O)(=O)N2C[C@H](n3c(C)c(CC(=O)O)c4ccccc43)C[C@@H]2C)cc1` [Compound I-315] showed a 50% inhibitory concentration (IC50) at Human DP1 receptor (setting [1]) of less than 100 nM. For the same molecule, the inhibitory constant (Ki) at CRTH2 (setting [2]) was 100 to 5000 nM.

`Cc1c(CC(=O)O)c2ccccc2n1[C@@H]1C[C@H](C)N(S(=O)(=O)c2ccc(OC(F)F)cc2)C1` [Compound I-316]: the values for the IC50 at Human DP1 receptor (setting [3]) and on Human DP1 receptor (setting [1]) were 110 nM and 100 to 5000 nM, respectively. Besides, the Ki on CRTH2 (setting [2]) was 100 to 5000 nM; on CRTH2, 220 nM.

In turn, `Cc1c(CC(=O)O)c2ccccc2n1[C@@H]1C[C@H](C)N(S(=O)(=O)c2ccc(F)cc2)C1` [Compound I-317] yielded a half-inhibitory concentration (IC50) on Human DP1 receptor (setting [1]) of 100 to 5000 nM. Besides, the inhibition constant (Ki) at CRTH2 (setting [2]) was in the range of 100 to 5000 nM.

As for `Cc1ccc(S(=O)(=O)N2C[C@H](n3c(C)c(CC(=O)O)c4ccccc43)C[C@@H]2C)cc1` [Compound I-318], the 50% inhibitory concentration (IC50) on Human DP1 receptor (setting [1]) was 100 to 5000 nM. Further, the Ki at CRTH2 (setting [2]) lay within 100 to 5000 nM.

The molecule `CCOc1ccc(S(=O)(=O)N2C[C@H](n3nc(CC(=O)O)c4ccccc43)C[C@@H]2C(N)=O)cc1` [Compound I-319] had an IC50 against Human DP1 receptor (setting [1]) of 100 to 5000 nM. Moreover, at CRTH2 (setting [2]), the Ki was in the range of 100 to 5000 nM.

For `CCOc1ccc(S(=O)(=O)N2C[C@H](n3nc(CC(=O)O)c4ccccc43)C[C@H]2C#N)cc1` [Compound I-320], the IC50 against Human DP1 receptor (setting [1]) is less than 100 nM. Further, on CRTH2 (setting [2]), the Ki was less than 100 nM.

Regarding `C=CCOC[C@H]1C[C@@H](n2nc(CC(=O)O)c3ccc(F)cc32)CN1S(=O)(=O)c1ccc(OC(C)C)cc1` [Compound I-323], at Human DP1 receptor (setting [1]), the IC50 is 100 to 5000 nM. Besides, the inhibitory constant (Ki) on CRTH2 (setting [2]) lay within 100 to 5000 nM.
